Assays:
[1] = system: L1210 sensitive; conditions: murine leukemia L1210 sensitive to standard cytotoxic agents; MTT, continuous exposure; cited from earlier work
[2] = system: neonatal rat myocytes; conditions: 1 hour drug concentration that reduces ATP/protein ratio to 50% of untreated control myocytes; read-out: IC50 Cardiotox; cited from earlier work
[3] = system: L1210 resistant; conditions: murine leukemia L1210 resistant, P-glycoprotein producing; MTT, continuous exposure; cited from earlier work
[4] = system: acute monophasic EAE; test: Acute monophasic EAE, drug administration beginning with immunization; format: in vivo, C57/BL6 mice; conditions: for Day of Onset / Incidence / Mean Clinical Score: 30 day observation; for Max. Clinical Score: scale 0 to 5
Text: (§1) An acute monophasic form of EAE, induced by the administration of MOG, mimics the progressive clinical patterns of MS seen in human patients and can provide an opportunity to investigate a therapy's ability to prevent progression to symptomatic disease, to prevent or reduce the disability that would otherwise be caused by disease progression, or to treat one or more clinical symptoms of MS. The induction of the acute monophasic form of EAE in C57/BL6 mice can be achieved as described in Gaupp et al., Am J Pathol. 162(1): 139-150 (2003). Similarly, a relapsing-remitting form of EAE, induced by the administration of PLP, mimics the more common relapsing-remitting form of MS seen in humans and can provide an opportunity to investigate potential therapies to reduce the frequency, severity, or duration of a disease relapse, to otherwise prevent disability caused by disease progression, or to relieve one or more clinical symptoms of MS in human patients. The induction of the relapsing-remitting form of EAE in SJL/J mice can be achieved as described in Fridkis-Hareli et al., J Clin Invest. 109(12): 1635-1643 (2002).
(§2) Acute monophasic EAE was induced in C57/BL6 mice by subcutaneous flank and tail base injections of 200 μg of MOG in complete Freund's adjuvent containing 500 μg of heat-inactivated mycobacterium tuberculosis on day 0, supplemented by intravenous injections of 200 ng of pertussis toxin on day 2.
With reference first to FIGS. 1-3, beginning on the day of immunization for acute monophasic EAE, nine groups of mice (each group containing 5 or 6 individuals) were treated with either ethonafide (AMP; a compound of Formula (II) wherein the dibenzisoquinoline ring structure is substituted at position 6 with —OCH2CH3) or mitoxantrone at a dose of 0.125 mg/kg, 0.25 mg/kg, or 0.5 mg/kg daily for seven days, or were left untreated to be used as a control at each respective dose level. Each drug was administered intraperitoneally in phosphate buffered saline (untreated mice received i.p. administrations of the PBS vehicle). The mice were observed daily for clinical signs of disease, and were scored (by multiple investigators) on an arbitrary scale from 0 to 5 in increments of 0.5 according to the following parameters: 0—no clinical signs of disease; 1—flaccid tail; 2—hind limb weakness or abnormal gait; 3—complete hind paralysis; 4—complete hind paralysis with forelimb weakness or paralysis; and 5-moribund or deceased. The incidence of disease in the immunized mice, the day of disease onset, the maximum clinical score, and the mean clinical score over a 30 day observation period were determined, and the results are shown in Table 2.

[5] = system: acute monophasic EAE; test: Acute monophasic EAE, drug administration beginning on day 11 post immunization; format: in vivo, C57/BL6 mice; conditions: for Mean Clinical Score / Day of Onset / Incidence: 32 day observation; for Mean Clinical Score: mice that had evidence of disease; for Max. Clinical Score: scale 0 to 5
Text: as §1, §2
With reference now to FIG. 4, five groups of mice (each group containing 5 or 6 individuals), immunized for acute monophasic EAE as described hereinbefore, were treated with either ethonafide (AMP) or mitoxantrone at a dose of 0.5 mg/kg or 1.0 mg/kg beginning on day 11 following immunization, for seven days, or were left untreated to be used as a control. Each drug was administered intraperitoneally in phosphate buffered saline (untreated mice received i.p. administrations of the PBS vehicle). The mice were observed daily for clinical signs of disease and were scored as indicated hereinbefore on a clinical scale from 0 to 5. The incidence of disease in the immunized mice, the day of disease onset, the maximum clinical score, and the mean clinical score over a 32 day observation period were determined, and the results are shown in Table 3.

[6] = 0.125 mg/kg i.p. daily for seven days from day of immunization
[7] = 0.125 mg/kg i.p. daily for seven days from day of immunization, mice that had evidence of disease
[8] = 0.25 mg/kg i.p. daily for seven days from day of immunization
[9] = 0.25 mg/kg i.p. daily for seven days from day of immunization, mice that had evidence of disease
[10] = 0.5 mg/kg i.p. daily for seven days from day of immunization
[11] = 0.5 mg/kg i.p. for seven days beginning on day 11
[12] = 0.5 mg/kg i.p. for seven days beginning on day 11 following immunization
[13] = 1.0 mg/kg i.p. for seven days beginning on day 11
[14] = 1.0 mg/kg i.p. for seven days beginning on day 11 following immunization

O=C1c2c(O)ccc(O)c2C(=O)c2c(NCCNCCO)ccc(NCCNCCO)c21 [Mitoxantrone, reference compound]
IC50 [1]: 10 nM
IC50 [2]: 7740 nM
IC50 [3]: 39 nM
Day of Onset [4, 6]: 12.5 ± 0.67
Incidence [4, 6]: 100%
Mean Clinical Score [4, 7]: 1.63 ± 0.59
Max. Clinical Score [4, 6]: 3.1 ± 0.33
Incidence [4, 8]: 40%
Mean Clinical Score [4, 9]: 0.21 ± 0.07
Incidence [4, 10]: 0%
Mean Clinical Score [4, 10]: 0
Max. Clinical Score [4, 10]: 0
Mean Clinical Score [5, 11]: 0.59 ± 1.67
Day of Onset [5, 12]: 12.2 ± 0.68
Incidence [5, 12]: 100%
Max. Clinical Score [5, 12]: 2.4 ± 0.36
Mean Clinical Score [5, 13]: 0.51 ± 0.21
Day of Onset [5, 14]: 13.3 ± 0.55
Incidence [5, 14]: 60%
Max. Clinical Score [5, 14]: 2.8 ± 0.36

CCOc1ccc2c3c(c4ccccc4cc13)C(=O)N(CCN(C)C)C2=O [*6-OC2H5]
IC50 [1]: 8 nM
IC50 [2]: 1780 nM
IC50 [3]: 7 nM
Day of Onset [4, 6]: 11.5 ± 0.88
Incidence [4, 6]: 100%
Mean Clinical Score [4, 7]: 1.98 ± 0.48
Max. Clinical Score [4, 6]: 3.5 ± 0.22
Day of Onset [4, 8]: 17.8 ± 3.4
Incidence [4, 8]: 100%
Mean Clinical Score [4, 9]: 0.88 ± 0.38
Max. Clinical Score [4, 8]: 1.8 ± 1.16
Incidence [4, 10]: 0%
Mean Clinical Score [4, 10]: 0
Max. Clinical Score [4, 10]: 0
effect in delaying or preventing the onset of clinically symptomatic progressive disease and the disability caused thereby ([4]; 0.125, 0.25, 0.5 mg/kg from day of immunization, FIGS. 1-3, Table 2): dose dependent effect
Mean Clinical Score [5, 11]: 1.86 ± 0.35
Day of Onset [5, 12]: 11.8 ± 0.72
Incidence [5, 12]: 100%
Max. Clinical Score [5, 12]: 3.9 ± 0.26
Mean Clinical Score [5, 13]: 1.17 ± 0.24
Day of Onset [5, 14]: 12.3 ± 0.55
Incidence [5, 14]: 60%
Max. Clinical Score [5, 14]: 3.7 ± 0.22
effect in the treatment of clinical symptoms induced in the EAE mouse model ([5]; 0.5 and 1.0 mg/kg beginning on day 11, FIG. 4, Table 3): dose dependent effect

CN(C)CCCN1C(=O)c2cccc3cc4ccccc4c(c23)C1=O [2-(CH2)3N(CH3)2]
IC50 [1]: 54 nM
IC50 [2]: 11400 nM
IC50 [3]: 82 nM

CC(=O)Nc1cccc2c3c4c(cccc4cc12)C(=O)N(CCN(C)C)C3=O [*8-NHCOCH3]
IC50 [1]: 485 nM
IC50 [2]: 12100 nM
IC50 [3]: 510 nM

O=C1c2cccc3cc4ccccc4c(c23)C(=O)N1CCCN(CCO)CCO [2-(CH2)3N(CH2CH2OH)2]
IC50 [1]: 76 nM
IC50 [2]: 8910 nM
IC50 [3]: 142 nM

CN(C)CCN1C(=O)c2cccc3cc4cc(O)ccc4c(c23)C1=O [*9-OH]
IC50 [1]: 5 nM
IC50 [2]: 404 nM
IC50 [3]: 7 nM

CN(C)CCNc1ccc2c3c(c4ccccc4cc13)C(=O)N(CCN(C)C)C2=O [*6-NH(CH2)2N(CH3)2]
IC50 [1]: 0.04 nM
IC50 [2]: 4190 nM
IC50 [3]: 0.04 nM

CC(=O)Nc1c2ccccc2c2c3c(cccc13)C(=O)N(CCN(C)C)C2=O [*7-NHCOCH3]
IC50 [1]: 487 nM
IC50 [2]: > 23600 nM
IC50 [3]: 487 nM

CN(C)CCN1C(=O)c2cccc3cc4cccc([N+](=O)[O-])c4c(c23)C1=O [*11-NO2]
IC50 [1]: 23 nM
IC50 [2]: 8650 nM
IC50 [3]: 50 nM

O=C1c2cccc3cc4ccccc4c(c23)C(=O)N1CCN1CCCCC1 [2-(CH2)2N(CH2)5]
IC50 [1]: 51 nM
IC50 [2]: 10400 nM
IC50 [3]: 51 nM

CCOc1c2ccccc2c2c3c(cccc13)C(=O)N(CCN(C)C)C2=O [*7-OC2H5]
IC50 [1]: 63 nM
IC50 [2]: 5300 nM
IC50 [3]: 50 nM

CN(C)CCN1C(=O)c2cccc3cc4ccc([N+](=O)[O-])cc4c(c23)C1=O [*10-NO2]
IC50 [1]: 25 nM
IC50 [2]: 801 nM
IC50 [3]: 25 nM

Cc1ccc2cc3cccc4c3c(c2c1)C(=O)N(CCN(C)C)C4=O [*10-CH3]
IC50 [1]: 41 nM
IC50 [2]: 1000 nM
IC50 [3]: 54 nM

CNCCN1C(=O)c2ccc(Cl)c3cc4ccccc4c(c23)C1=O [2-(CH2)2NHCH3; 6-Cl]
IC50 [1]: 53 nM
IC50 [2]: 7600 nM
IC50 [3]: 53 nM

CN(C)CCN1C(=O)c2cccc3c(O)c4ccccc4c(c23)C1=O [*7-OH]
IC50 [1]: 472 nM
IC50 [2]: > 24100 nM
IC50 [3]: 212 nM

CN(C)CCN1C(=O)c2cccc3cc4ccc(N)cc4c(c23)C1=O [*10-NH2]
IC50 [1]: 3 nM
IC50 [2]: 943 nM
IC50 [3]: 3 nM

CCc1ccc2c3c(c4ccccc4cc13)C(=O)N(CCN(C)C)C2=O [*6-C2H5]
IC50 [1]: 183 nM
IC50 [2]: 7830 nM
IC50 [3]: 235 nM

CN(C)CCN1C(=O)c2ccc(S(C)(=O)=O)c3cc4ccccc4c(c23)C1=O [*6-SO2CH3]
IC50 [1]: 35 nM
IC50 [2]: 2320 nM
IC50 [3]: 35 nM

O=C1c2cccc3cc4ccccc4c(c23)C(=O)N1CCN1CCCC1 [2-(CH2)2N(CH2)4]
IC50 [1]: 15 nM
IC50 [2]: 920 nM
IC50 [3]: 12 nM

CN(C)CCNc1ccc2cc3ccccc3c3c2c1C(=O)N(CCN(C)C)C3=O [*4-NH(CH2)2N(CH3)2]
IC50 [1]: 210 nM
IC50 [2]: 734 nM
IC50 [3]: 245 nM

CN(C)CCN1C(=O)c2cccc3cc4cccc(O)c4c(c23)C1=O [*11-OH]
IC50 [1]: 189 nM
IC50 [2]: 15400 nM
IC50 [3]: 189 nM

CN(C)CCN1C(=O)c2cccc3cc4ccc(O)cc4c(c23)C1=O [*10-OH]
IC50 [1]: 189 nM
IC50 [2]: > 27000 nM
IC50 [3]: 540 nM
